Here are results for 15 compounds from patent publication US8420657B2 (Novartis AG, priority 2008, dated 2013).

The first assay has as its system JAK1/JAK2-dependent nuclear translocation of STAT1-GFP in HT1080 fibrosarcoma cells. The assay can be described thus: STAT1 nuclear translocation assay (Cellomics), IFN-γ stimulated HT1080 STAT1-GFP cells. In kind it is cell-based. The note with it: Homo sapiens, HT-1080, STAT1 translocation pathway. In a few lines:
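HT1080 cells stably expressing STAT1-GFP, pre-treated 30 min with compound (10 μM–0.003 μM, 0.1% DMSO), then stimulated 2 h with 100 ng/ml IFN-γ, fixed and Hoechst-stained. Nuclear-cytoplasmic GFP differential imaged over ≥1000 cells/well, normalised to unstimulated and DMSO-stimulated wells for IC50.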
As to `Cn1cc(Nc2ncc3ccn(-c4ccc(CC(=O)N5CCOCC5)cc4)c3n2)cn1` [Example 301, 2-{4-[2-(1-Methyl-1H-pyrazol-4-ylamino)-pyrrolo[2,3-d]pyrimidin-7-yl]-phenyl}-1-morpholin-4-yl-ethanone], the IC50 (in general, the concentration that gives 50% inhibition) amounted to 50 nM.

The compound `Cc1ccc(Nc2ncc3ccn(-c4ccc(C(=O)N5CCOCC5)cc4)c3n2)cn1` [Example 238, {4-[2-(6-Methyl-pyridin-3-ylamino)-pyrrolo[2,3-d]pyrimidin-7-yl]-phenyl}-morpholin-4-yl-methanone] gave an IC50 of 785 nM. This IC50 lies about 16-fold higher than the previous one.

In the case of `COCc1ccc(Nc2ncc3ccn(-c4cc(F)c(CN5CCS(=O)(=O)CC5)c(F)c4)c3n2)cc1` [Example 184, {7-[4-(1,1-Dioxido-thiomorpholin-4-ylmethyl)-3,5-difluoro-phenyl]-7H-pyrrolo[2,3-d]pyrimidin-2-yl}-(4-methoxymethyl-phenyl)-amine], the IC50 was found to be 35 nM.

On to `CC(C)Oc1ccc(Nc2ncc3ccn(-c4ccc(C#N)cc4)c3n2)cc1` [Example 96, 4-[2-(4-Isopropoxy-phenylamino)-pyrrolo[2,3-d]pyrimidin-7-yl]-benzonitrile], for which the IC50 was 26200 nM. This IC50 is about 750-fold higher than that of the compound before.

As to `Cc1ccc(Nc2ncc3ccn(-c4ccc(C(=O)N5CCN(CCO)CC5)cc4)c3n2)cc1C` [Example 300, {4-[2-(3,4-Dimethyl-phenylamino)-pyrrolo[2,3-d]pyrimidin-7-yl]-phenyl}-[4-(2-hydroxy-ethyl)-piperazin-1-yl]-methanone], inhibition was half-maximal at 2030 nM (IC50).

`CN1CCN(C(=O)c2cccc(Nc3ncc4ccn(-c5cc(F)c(CN6CCOCC6)c(F)c5)c4n3)c2)CC1` [Example 203, {3-[7-(3,5-Difluoro-4-morpholin-4-ylmethyl-phenyl)-7H-pyrrolo[2,3-d]pyrimidin-2-ylamino]-phenyl}-(4-methyl-piperazin-1-yl)-methanone] displayed an IC50 of 412 nM.

Consider `Cc1ccc(Nc2ncc3ccn(-c4cc(F)c(CN5CCOCC5)c(F)c4)c3n2)cc1CN1CCNCC1` [Example 332, [7-(3,5-Difluoro-4-morpholin-4-ylmethyl-phenyl)-7H-pyrrolo[2,3-d]pyrimidin-2-yl]-(4-methyl-3-piperazin-1-ylmethyl-phenyl)-amine], for which the IC50 came to 375 nM. The IC50 values of the last two compounds are within 1.5-fold of each other.

On to `Cc1cc(Nc2ncc3ccn(-c4ccc(C(=O)N5CCOCC5)c(F)c4)c3n2)nn1C` [Example 311, {4-[2-(1,5-Dimethyl-1H-pyrazol-3-ylamino)-pyrrolo[2,3-d]pyrimidin-7-yl]-2-fluoro-phenyl}-morpholin-4-yl-methanone], for which the IC50 turned out to be 1400 nM.

`COCc1c(F)cc(-n2ccc3cnc(Nc4ccc(N5CCN(C)CC5)nc4)nc32)cc1F` [Example 446, [7-(3,5-Difluoro-4-methoxymethyl-phenyl)-7H-pyrrolo[2,3-d]pyrimidin-2-yl]-[6-(4-methyl-piperazin-1-yl)-pyridin-3-yl]-amine] registered an IC50 of 50 nM.

`COc1cc(Nc2ncc3ccn(-c4ccc(C(=O)N5CCOCC5)c(F)c4)c3n2)ccc1F` [Example 151, {2-Fluoro-4-[2-(4-fluoro-3-methoxy-phenylamino)-pyrrolo[2,3-d]pyrimidin-7-yl]-phenyl}-morpholin-4-yl-methanone] came in with an IC50 of 228 nM. Against the preceding compound, the IC50 is about 4.6-fold higher.

The test system of another assay is JAK2-dependent nuclear translocation of STAT5-GFP in U-2 OS osteosarcoma cells. Briefly: STAT5 nuclear translocation assay (Cellomics), rhEpo stimulated U-2 OS STAT5-GFP cells. The conditions noted are these: Homo sapiens, U2OS; STAT5 translocation pathway. In kind it is cell-based. In a few lines:
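U-2 OS cells stably expressing STAT5a-GFP and EpoR pre-treated with compound (final 10 μM to 0.003 μM, 0.1% DMSO) for 30 min at 37° C., then stimulated 1 h with 5 U/ml rhEpo. Nuclear-cytoplasmic GFP differential quantified by automated imaging (≥1000 cells/well, Hoechst nuclear mask). IC50 from % translocation normalized to untreated and DMSO-stimulated controls.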
Compound `CC1(C)NCCN(c2cc(Nc3ncc4ccn(-c5cc(F)c(CN6CCOCC6)c(F)c5)c4n3)ccn2)C1=O` [Example 503, 1-{4-[7-(3,5-Difluoro-4-morpholin-4-ylmethyl-phenyl)-7H-pyrrolo[2,3-d]pyrimidin-2-ylamino]-pyridin-2-yl}-3,3-dimethyl-piperazin-2-one] displayed an IC50 of 27.5 nM.

Regarding `CN1CCN(c2ccc(Nc3ncc4ccn(-c5cc(F)c(CN6CCS(=O)(=O)CC6)c(F)c5)c4n3)nc2)CC1` [Example 440, {7-[4-(1,1-Dioxido-thiomorpholin-4-ylmethyl)-3,5-difluoro-phenyl]-7H-pyrrolo[2,3-d]pyrimidin-2-yl}-[5-(4-methyl-piperazin-1-yl)-pyridin-2-yl]-amine], the IC50 was 61 nM.

In the case of `Cc1ccc(Nc2ncc3ccn(-c4cc(F)c(CN5CCNC(=O)C5)c(F)c4)c3n2)cc1CN1CCNCC1` [Example 382, 4-{2,6-Difluoro-4-[2-(4-methyl-3-piperazin-1-ylmethyl-phenylamino)-pyrrolo[2,3-d]pyrimidin-7-yl]-benzyl}-piperazin-2-one], the midpoint of inhibition, the IC50, lay at 121 nM.

`Cc1ccc(Nc2ncc3ccn(-c4cc(F)c(CN5CCOCC5)c(F)c4)c3n2)cc1CN1CCNCC1` [Example 332, [7-(3,5-Difluoro-4-morpholin-4-ylmethyl-phenyl)-7H-pyrrolo[2,3-d]pyrimidin-2-yl]-(4-methyl-3-piperazin-1-ylmethyl-phenyl)-amine] yielded an IC50 of 73 nM.

Compound `C[C@@H]1CN(c2ccc(Nc3ncc4ccn(-c5ccc(NS(C)(=O)=O)cc5)c4n3)cn2)C[C@H](C)N1` [Example 380, N-(4-{2-[6-(cis-3,5-Dimethyl-piperazin-1-yl)-pyridin-3-ylamino]-pyrrolo[2,3-d]pyrimidin-7-yl}-phenyl)-methanesulfonamide] registered an IC50 of 46 nM.

For `COCc1c(F)cc(-n2ccc3cnc(Nc4ccc(N5CCN(C)CC5)nc4)nc32)cc1F` [Example 446, [7-(3,5-Difluoro-4-methoxymethyl-phenyl)-7H-pyrrolo[2,3-d]pyrimidin-2-yl]-[6-(4-methyl-piperazin-1-yl)-pyridin-3-yl]-amine], half-maximal inhibition (IC50) required 1.3 nM. Against the preceding compound, the IC50 is about 35-fold lower.

With `Fc1cc(-n2ccc3cnc(Nc4ccnc(CN5CCNCC5)c4)nc32)cc(F)c1CN1CCOCC1` [Example 372, [7-(3,5-Difluoro-4-morpholin-4-ylmethyl-phenyl)-7H-pyrrolo[2,3-d]pyrimidin-2-yl]-(2-piperazin-1-ylmethyl-pyridin-4-yl)-amine], the midpoint of inhibition, the IC50, lay at 57 nM. This IC50 is about 44-fold higher than that of the compound before.
